In ChEMBL document CHEMBL1147054, “Structural basis of enantioselective inhibition of cyclooxygenase-1 by S-alpha-substituted indomethacin ethanolamides” (J Biol Chem, 2007) one finds Kinact data, which are given here for 2 compounds.

This experiment concerns the target T1, Prostaglandin G/H synthase 1 (Ovis aries) (UniProt P05979).
T1 sequence (whole entry): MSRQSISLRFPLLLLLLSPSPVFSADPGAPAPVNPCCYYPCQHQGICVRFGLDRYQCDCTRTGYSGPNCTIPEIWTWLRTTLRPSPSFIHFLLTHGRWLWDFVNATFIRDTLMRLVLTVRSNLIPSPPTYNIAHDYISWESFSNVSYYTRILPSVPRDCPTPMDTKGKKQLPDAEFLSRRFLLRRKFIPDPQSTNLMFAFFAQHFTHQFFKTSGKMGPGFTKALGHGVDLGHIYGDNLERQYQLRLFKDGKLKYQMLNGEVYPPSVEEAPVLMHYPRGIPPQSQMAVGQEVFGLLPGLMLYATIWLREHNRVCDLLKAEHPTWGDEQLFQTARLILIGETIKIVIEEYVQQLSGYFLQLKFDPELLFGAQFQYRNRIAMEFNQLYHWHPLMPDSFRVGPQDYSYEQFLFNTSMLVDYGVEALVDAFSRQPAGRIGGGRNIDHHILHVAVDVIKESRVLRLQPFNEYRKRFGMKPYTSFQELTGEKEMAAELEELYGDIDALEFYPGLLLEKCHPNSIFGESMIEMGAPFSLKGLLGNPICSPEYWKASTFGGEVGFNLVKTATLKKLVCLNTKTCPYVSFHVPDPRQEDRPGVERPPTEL
As to conditions: 1 uM.

Description: Binding affinity to ovine COX1 at 1 uM to 25 uM

`CC[C@H](CO)NC(=O)Cc1c(C)n(C(=O)c2ccc(Cl)cc2)c2ccc(OC)cc12` came in with a Kinact of 2.3 µM. The compound `CC[C@@H](CO)NC(=O)Cc1c(C)n(C(=O)c2ccc(Cl)cc2)c2ccc(OC)cc12` gave a Kinact of 4 µM.
